Where two headings read alike, the source gives them in different places.
Legend:
[1] = tested on: scopolamine-induced hyperactivity, a proposed muscarinic M1 -mediated effect; assay: Scopolamine-induced hyperactivity (locomotor activity); format: in vivo, rat; parameters: Total activity: unit not given here
Protocol: Compounds were evaluated for the ability to attenuate scopolamine-induced hyperactivity, a proposed muscarinic M1 -mediated effect. Animals were permitted to habituate for 30 minutes in locomotor activity chambers (Digiscan, Omnitech; Columbus, Ohio) in which infrared detectors were used to measure movement in 3 axes. The animals were then injected i.p. with vehicle alone, scopolamine alone (1.7 mg/kg) or both scopolamine and one dose of the test compound. Animals were then replaced in the chambers and locomotor activity was measured for an additional 1 hour period. Total activity measures (vertical+horizintal movements) were collected and statistically analyzed in four 15 minute periods.

M1 muscarinic receptor = target: T1, M1 muscarinic receptor (Rattus norvegicus, UniProt P08482); assay: M1 receptor binding ([^3 H]-pirenzepine); parameters: species or system rat (male Sprague-Dawley); settings: Table 1; rat brain tissue, [^3 H]PZ 0.5 nM; read-out: ^3 H-Pirenzepine M1 IC50
T1 sequence (P08482 1-460): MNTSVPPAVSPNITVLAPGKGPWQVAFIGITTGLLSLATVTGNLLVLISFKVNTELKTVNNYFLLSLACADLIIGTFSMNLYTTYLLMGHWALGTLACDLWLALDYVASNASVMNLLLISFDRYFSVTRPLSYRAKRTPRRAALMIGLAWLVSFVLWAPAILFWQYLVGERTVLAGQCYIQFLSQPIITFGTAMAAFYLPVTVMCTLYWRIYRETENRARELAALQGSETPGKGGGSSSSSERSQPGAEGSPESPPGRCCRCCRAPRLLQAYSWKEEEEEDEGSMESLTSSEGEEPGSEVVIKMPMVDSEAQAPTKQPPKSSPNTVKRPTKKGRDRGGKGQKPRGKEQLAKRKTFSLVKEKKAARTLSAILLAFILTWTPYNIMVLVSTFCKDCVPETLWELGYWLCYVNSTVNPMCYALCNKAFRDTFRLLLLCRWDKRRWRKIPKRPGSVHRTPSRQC
Protocol: Compounds are tested for their ability to affect M1 muscarinic binding through use of [^3 H]-pirenzepine ([^3 H]PZ) as a prototypic M1 receptor ligand. Male Sprague-Dawley (Charles River) rats are used. Dose selection is typically in the concentration range of 10^-9 to 10^-4 M. Test and reference compounds are dissolved and diluted in water or ethanol and are then added to the assay buffer. The appropriate vehicle is added to the assay buffer for control testing.
The rats (approximately 300 gm body weight) have free access to food and water and are housed in groups of four to six. On the test day, the rats are euthanized by decapitation and brain tissue is dissected and homogenized using a hand-held teflon-coated pestle, in 20 volumes of 0.32M sucrose (20 strokes at 4° C.). After centrifugation (747×g for 10 minutes at 4° C.), the resultant supernatant is decanted and recentrifuged (18677×g for 20 minutes at 4° C.). The resultant pellet is resuspended in the original volume of 0.32M sucrose and frozen. After thawing, the suspension is diluted (1:1 v/v) with 10 mM Na2 HPO4 /KH2 PO4 buffer (pH=7.4). [^3 H]PZ (0.5 nM, 0.04 μCi) is then incubated with a 100 μl sample of the tissue suspension in the above buffer (1 ml final volume, including a 10 μl sample of test compound or vehicle). […] After 60 minutes of incubation at 25° C. (in the dark), the binding is terminated by vacuum filtration onto Whatman GF/B filters (pre-soaked for 60 minutes in 0.1% (w/v) polyethylenimine to reduce non-specific binding). After three washes with the previously mentioned buffer (4° C., 3 ml/wash), the vacuum is allowed to run for two minutes before the filter-trapped radioactivity is assayed by liquid scintillation spectroscopy.
Data are presented as the percent inhibition ([control-test]/control×100%) or enhancement ([test-control]/control×100%) of [^3 H]PZ binding by the test or reference compound. The IC50 value (the drug concentration which causes a 50% inhibition of specific [^3 H]PZ binding) is calculated through the use of the EDOSE program (with probit transformation written by a person for use in STAT80). Increases in [^3 H]PZ are reported as percent increase (versus control) for a given test drug concentration.

[2] = tested on: Scopolamine-impaired Radial Arm Maze; assay: Scopolamine-impaired Radial Arm Maze; format: in vivo, rat (male Sprague-Dawley)
From the text: Male Sprague-Dawley (Charles River) rats on a 23-hour food deprivation schedule were trained in an eight arm radial maze with all arms baited. Each session consisted of two maze exposures, with a time limit of 300 seconds for each exposure. After four correct choices (first exposure), each animal was removed from the maze for one hour, then returned with only the remaining four arms baited (second exposure). Choice errors, consisting of delay errors (re-entry into any of the four arms chosen during the first exposure) and current errors (re-entry into any of the four arms chosen during the second exposure), as well as total errors were recorded. Durations for each exposure were also recorded. Statistical analysis was performed using a one-way ANOVA with Dunnett's t-test comparisons. Scopolamine (0.3 mg/kg, S.C.) and the compound of Example 1 (3,10 mg/kg, I.P,.) were administrered simultaneously 30 minutes prior to the test. All compounds were solubilized in phosphate buffered saline.

M2 receptors [3] = target: T2, M2 receptors (Rattus norvegicus, UniProt P10980); assay: biochemical; format: binding; settings: read-out: ^3 H-QNB M2 IC50
T2 sequence (P10980 1-466): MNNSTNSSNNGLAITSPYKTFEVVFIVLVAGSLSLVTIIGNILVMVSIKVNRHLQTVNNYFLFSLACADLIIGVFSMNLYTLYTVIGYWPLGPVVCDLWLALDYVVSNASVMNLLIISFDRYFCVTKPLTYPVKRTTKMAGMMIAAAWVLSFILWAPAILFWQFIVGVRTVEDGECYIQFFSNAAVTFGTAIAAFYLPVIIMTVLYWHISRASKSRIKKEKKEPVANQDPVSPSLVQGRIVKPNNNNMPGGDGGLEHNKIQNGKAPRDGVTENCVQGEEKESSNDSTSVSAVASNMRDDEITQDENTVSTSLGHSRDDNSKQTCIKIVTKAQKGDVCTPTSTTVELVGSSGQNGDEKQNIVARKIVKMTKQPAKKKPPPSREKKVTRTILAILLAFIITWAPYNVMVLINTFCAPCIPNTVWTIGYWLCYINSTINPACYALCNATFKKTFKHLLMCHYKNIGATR

M2 receptors [4] = assay: biochemical; format: binding; settings: Table 1; ratio of M2 IC50 to M1 IC50
[5] = tested on: scopolamine-induced memory loss; settings: cited from earlier work
memory loss = settings: cat, rat, and monkey; muscarinic antagonist; cited from earlier work
[6] = tested on: scopolamine-induced memory loss; settings: rats; cited from earlier work
[7] = tested on: Alzheimer's patients and healthy elderly patients; settings: cited from earlier work; for clinical efficacy: human, in vivo
[8] = tested on: scopolamine-induced memory loss; settings: monkeys; cited from earlier work
[9] = scopolamine + Example 1 3.0 mg/kg I.P., N=11
[10] = scopolamine + Example 1 10.0 mg/kg I.P., N=12
[11] = scopolamine alone 0.3 mg/kg S.C., N=12

## Cc1cc(NCCCN2CCOCC2)nc2ccccc12 [Example 1, 4-Methyl-N-[3-(4-morpholinyl)propyl]-2-quinolinamine (E)-2-butenedioate 1:1 hydrate]
[1]; 30 and 54 mg/kg i.p., 30 and 45 minutes post-injection
  attenuation of scopolamine hyperactivity: produced an attenuation at 30 and 45 minutes post-injection that did not differ from the scopolamine-or vehicle-only controls
[1]; Rattus norvegicus, ip, attenuation of scopolamine (1.7 mg/kg) hyperactivity, i.p., read-out: minimum effective dose
  minimal effective dose: 30 mg/kg
[1]; relative to oxotremorine
  in vivo M1 agonist activity, less effective than oxotremorine: 100 fold
[1]; scopolamine + Example 1 30 mg/kg i.p., 15 min, N=10
  Total activity: 3792
[1]; scopolamine + Example 1 30 mg/kg i.p., 30 min, N=10
  Total activity: 2069
[1]; scopolamine + Example 1 30 mg/kg i.p., 45 min, N=10
  Total activity: 1839
[1]; scopolamine + Example 1 30 mg/kg i.p., 60 min, N=10
  Total activity: 1697
[1]; scopolamine + Example 1 54 mg/kg i.p., 15 min, N=10
  Total activity: 3602
[1]; scopolamine + Example 1 54 mg/kg i.p., 30 min, N=10
  Total activity: 1899
[1]; scopolamine + Example 1 54 mg/kg i.p., 45 min, N=10
  Total activity: 1722
[1]; scopolamine + Example 1 54 mg/kg i.p., 60 min, N=10
  Total activity: 1535
M1 muscarinic receptor
  IC50: 1200 nM
[2]; 3.0 mg/kg I.P.
  effect on scopolamine impairment: non-significantly reduced this scoplamine impairment
[2]; 10 mg/kg I.P.
  effect on scopolamine impairment: had no effect
[2]; 3, 10 mg/kg I.P.
  effect on increased time measures caused by scopolamine: largely unaffected
[2]; rat, in vivo
  cognitive impairments seen after scopolamine treatment (conclusion): can reduce the cognitive impairments seen after scopolamine treatment
[2]; [9]
  Mean Error, Current: 0.55
  Mean Error, Delay: 1.77
  Mean Error, Total: 1.14
  Mean Time 1.4: 90.10 s
  Mean Time 5-: 121.73 s
  Mean Time Total: 105.91 s
[2]; [10]
  Mean Error, Current: 0.33
  Mean Error, Delay: 2.75
  Mean Error, Total: 1.54
  Mean Time 1.4: 113.8 s
  Mean Time 5-: 148.1 s
  Mean Time Total: 130.92 s
M2 receptors [3]
  IC50: 69.3 µM
M2 receptors [4]
  M2/M1: 58

## CN1[C@@H]2C[C@@H](OC(=O)[C@H](CO)c3ccccc3)C[C@H]1[C@@H]1O[C@@H]12 [Scopolamine]
[1]; scopolamine 1.7 mg/kg, 15, 30, 45 and 60 minutes post-injection
  effect on total activity: significantly elevated total activity at all four time points
[1]; scopolamine alone 1.7 mg/kg i.p., first experiment (Example 1), 15 min, N=9
  Total activity: 4349
[1]; scopolamine alone 1.7 mg/kg i.p., first experiment (Example 1), 30 min, N=9
  Total activity: 2816
[1]; scopolamine alone 1.7 mg/kg i.p., first experiment (Example 1), 45 min, N=9
  Total activity: 2638
[1]; scopolamine alone 1.7 mg/kg i.p., first experiment (Example 1), 60 min, N=9
  Total activity: 1858
[1]; scopolamine alone 1.7 mg/kg i.p., second experiment (oxotremorine), 15 min, N=9
  Total activity: 5486
[1]; scopolamine alone 1.7 mg/kg i.p., second experiment (oxotremorine), 30 min, N=9
  Total activity: 4720
[1]; scopolamine alone 1.7 mg/kg i.p., second experiment (oxotremorine), 45 min, N=9
  Total activity: 3718
[1]; scopolamine alone 1.7 mg/kg i.p., second experiment (oxotremorine), 60 min, N=9
  Total activity: 3510
[5]; muscarinic antagonist
  memory loss in normal humans: can be artificially induced
Memory loss
  memory loss in animals: can be artificially induced
[2]; scopolamine 0.3 mg/kg S.C., compared to vehicle
  effect on delay and total errors: produced a significant impairment in both delay and total errors
[2]; [11]
  Mean Error, Current: 1.0
  Mean Error, Delay: 2.80
  Mean Error, Total: 1.90
  Mean Time 1.4: 87.25 s
  Mean Time 5-: 169.80 s
  Mean Time Total: 128.50 s

## COC(=O)C1=CCCN(C)C1 [arecoline]
[6]
  reversal of scopolamine-induced deficit: can be reversed
[7]
  clinical efficacy: neither physostigmine nor arecoline have clinical efficacy due to undesirable side-effects, a short duration of action and a narrow active dose range

## CNC(=O)Oc1ccc2c(c1)[C@]1(C)CCN(C)[C@@H]1N2C [physostigmine]
[5]; humans
  reversal of scopolamine-induced deficit: can be reversed
[7]
  clinical efficacy: neither physostigmine nor arecoline have clinical efficacy due to undesirable side-effects, a short duration of action and a narrow active dose range
[8]
  reversal of scopolamine-induced deficit: can be reversed

## lecithin
[7]; Alzheimer's patients and healthy elderly patients
  improvement on cognitive tests: No significant improvement was observed on any cognitive test

Reference: patent US5770734A, “N-substituted-2-aminoquinolines useful for treating hypofunction of the cholinergic system” (American Home Products Corporation, priority 1992, dated 1998)
